Experimental data published in patent US12377077B2, “Methods and formulations to treat mitochondrial dysfunction” (The Board of Trustees of the Leland Stanford Junior …, priority 2018, dated 2025).
“Also recorded” adds a separate entry of the source.

Experiments:
Type in all cases: cell-based, human
[1] = test system: SURF1-deficient fibroblasts; test: Cellular morphology by phase-contrast microscopy; details: vs DMSO
Source text: (§1) Fibroblasts in tissue culture were visualized by phase-contrast microscopy with a Leica DM IRB microscope at ×10 magnification, and images were taken with the Hamamatsu ORCA-ER camera.

[2] = test system: COX10-deficient fibroblasts; test: Cellular morphology by phase-contrast microscopy; details: vs untreated
Source text: as §1

[3] = test system: NGLY1 deficient fibroblasts; test: Cellular morphology by phase-contrast microscopy; details: NGLY-1 deficient fibroblasts; vs untreated
Source text: as §1

[4] = test system: POLG-deficient fibroblasts; test: Cellular morphology by phase-contrast microscopy; details: vs untreated
Source text: as §1

CI-deficient fibroblasts [5] = test: Cellular morphology by phase-contrast microscopy; details: vs untreated
Source text: as §1

[6] = test system: NGLY1 deficient fibroblasts; test: Cell viability by Calcein AM in mitochondrial stressor media; details: NGLY-1 deficient fibroblasts from three individuals; +PT1 vs −PT1; FIG. 2E
Experimental: (§2) Fibroblasts previously derived from four patients with primary mitochondrial disease (Surf1, Complex I, Cox10, Polg), three patients with NGLY1 deficiency and four normal controls were used for the study. All samples were obtained with informed consent and approved by the Stanford IRB. Fibroblasts were maintained in DMEM medium containing 8.3 mM glucose and supplemented with 10% fetal bovine serum (FBS)(Fisher Scientific), 1% Penicillin-Streptomycin (10,000 U/mL)(Life Technologies), 1% glutaMAX (Life Technologies), 1% uridine (5 mg/ml) and 1% pyruvate (11 mg/ml) at 37° C., 5% CO2.
(§3) For the screening of various compounds, 15×10^3 cells/500 ul media were seeded in quadruplets on 24 well microtiter plates. The following day, the medium was removed, wells washed with PBS and replaced with a mitochondrial stressor media containing DMEM, 1% Penicillin-Streptomycin (10,000 U/mL)(Life Technologies), 10% FCS (Fisher Scientific), 1 mM Galactose (Sigma Aldrich), and 25 μM sodium azide with or without the following compounds: 1 mM AICAR (Medchem Express), 1 mM Metformin (Sigma Aldrich), 100 μM PT1 (Santa Cruz Biotechnology), 100 μM A-769662 (Medchem Express), 100 μM C24 (Medchem Express). Following treatment with the various compounds, tissue cultures were analyzed for growth, oxygen consumption rate, and ATP levels.
(§4) Methods: Cell growth was measured by a fluorometric method using Calcein AM (Anaspec). Mitochondrial stressor media was removed, wells washed with PBS and then incubated with 500 ul/well of 800 nM Calcein AM in PBS for 30 min at 37 C, 5% CO2. Cell viability was measured by values obtained using a 485 nm excitation with the Flouroskan Ascent Microplate Fluorometer (Thermo Scientific).

CI-deficient fibroblasts [7] = test: as above; details: FIG. 2C
Experimental: as §2, §3, §4

[8] = test system: POLG deficient fibroblasts; test: ATP levels, CellTiter-Glo ATP Assay; details: PT1 48 hrs vs DMSO
Experimental: (§5) Methods: SURF1, POLG, and NGLY1 patient cells were supplemented with PT1 or DMSO (untreated control) for 48 hrs (n=3) and ATP levels measured by the CellTiter-Glo ATP Assay or for 72 hrs (n=3) and ROS levels were measured by the CellROX Deep Red Flow Cytometry Assay. Results were normalized to total protein concentration. Data are represented as the mean±standard error of the mean. Statistical significance was measured to p<0.05.

[9] = test system: NGLY1 deficient fibroblasts; test: ATP levels, CellTiter-Glo ATP Assay; details: PT1 48 hrs vs DMSO
Experimental: as §5

[10] = test system: SURF1 deficient fibroblasts; test: ATP levels, CellTiter-Glo ATP Assay; details: PT1 48 hrs vs DMSO
Experimental: as §5

[11] = test system: SURF1-deficient fibroblasts; test: Cell viability by Calcein AM in mitochondrial stressor media; details: SURF1-deficient fibroblasts; FIG. 2A
Experimental: (§6) Fibroblasts previously derived from four patients with primary mitochondrial disease (Surf1, Complex I, Cox10, Polg), three patients with NGLY1 deficiency and four normal controls were used for the study. All samples were obtained with informed consent and approved by the Stanford IRB. Fibroblasts were maintained in DMEM medium containing 8.3 mM glucose and supplemented with 10% fetal bovine serum (FBS)(Fisher Scientific), 1% Penicillin-Streptomycin (10,000 U/mL)(Life Technologies), 1% glutaMAX (Life Technologies), 1% uridine (5 mg/ml) and 1% pyruvate (11 mg/ml) at 37° C., 5% CO2. For the screening of various compounds, 15×10^3 cells/500 ul media were seeded in quadruplets on 24 well microtiter plates. The following day, the medium was removed, wells washed with PBS and replaced with a mitochondrial stressor media containing DMEM, 1% Penicillin-Streptomycin (10,000 U/mL)(Life Technologies), 10% FCS (Fisher Scientific), 1 mM Galactose (Sigma Aldrich), and 25 μM sodium azide with or without the following compounds: 1 mM AICAR (Medchem Express), 1 mM Metformin (Sigma Aldrich), 100 μM PT1 (Santa Cruz Biotechnology), 100 μ[…] Express). Following treatment with the various compounds, tissue cultures were analyzed for growth, oxygen consumption rate, and ATP levels. Methods: Cell growth was measured by a fluorometric method using Calcein AM (Anaspec). Mitochondrial stressor media was removed, wells washed with PBS and then incubated with 500 ul/well of 800 nM Calcein AM in PBS for 30 min at 37 C, 5% CO2. Cell viability was measured by values obtained using a 485 nm excitation with the Flouroskan Ascent Microplate Fluorometer (Thermo Scientific).

[12] = test system: COX10-deficient fibroblasts; test: as above; details: FIG. 2B
Experimental: as §6

[13] = test system: POLG-deficient fibroblasts; test: as above; details: FIG. 2D
Experimental: as §6

PGC-1α = test: Gene expression after PT1 treatment; details: 48 hr treatment with PT1; FIG. 5B
[14] = test system: NGLY1 deficient fibroblasts; test: Lipofuscin levels; details: FIG. 8B
[15] = test system: POLG deficient fibroblasts; test: ROS levels, CellROX Deep Red Flow Cytometry Assay; details: PT1 72 hrs vs DMSO
Experimental: as §5

[16] = test system: NGLY1 deficient fibroblasts; test: ROS levels, CellROX Deep Red Flow Cytometry Assay; details: PT1 72 hrs vs DMSO
Experimental: as §5

[17] = test system: SURF1 deficient fibroblasts; test: ROS levels, CellROX Deep Red Flow Cytometry Assay; details: PT1 72 hrs vs DMSO
Experimental: as §5

SMILES: Cc1cc(-c2ccc(C=C3SC(=S)N(c4ccc(Cl)c(C(=O)O)c4)C3=O)o2)c([N+](=O)[O-])cc1C [PT1]
- cellular morphology [1]: improved cellular morphology; also recorded: cell morphology improved
- cellular morphology [2]: cell morphology improved
- cellular morphology [3]: cell morphology improved
- cellular morphology [4]: cell morphology improved
- cellular morphology (CI-deficient fibroblasts [5]): cell morphology improved
- improvement in viability [6]: ≤ 60% and up to 60%
- survival / viability (CI-deficient fibroblasts [7]): improves survival; also recorded: significantly improved survival
- increase in ATP production / content [8]: 36%
- increase in ATP production / content [9]: 40%
- increase in ATP production / content [10]: 35%
- survival / viability [11]: largest improvement
- survival / viability [12]: improves survival; also recorded: significantly improved survival
- survival / viability [13]: improves survival; also recorded: significantly improved survival
- increase in expression of PGC-1α (PGC-1α): 2.4 fold
- reduction of lipofuscin levels [14]: approximately 36%
- reduction in ROS levels [15]: 15%
- reduction in ROS levels [16]: 18%
- reduction in ROS levels [17]: 10%
